Like-named read-outs stand apart in the source and are kept apart here. Blank lines part the entries; values can stand above or below the compound they belong to.
Columns and labels:
[1] = Viscosity of binder chemicals; type: physicochemical; conditions: 20° C.
[2] = Thermal decomposition (temperature vs weight, FIG. 3); type: physicochemical
Description: FIG. 3 illustrates a graph indicating a relationship between temperature and weigh of glycerin and diglycerin.
In addition, it is preferable that the aforementioned chemicals having only a function as a binder is thermally decomposed in carbon dioxide and water when the molded body of the graphite particles is calcinated at 250-350° C. temperature, then such carbon dioxide and water evaporates into the air, in other word, no residue remains due to the thermal decomposition reaction. In such point of view, it is considered that glycerin and diglycerin as glycerin derivative being thermally decomposed at below 350° C. and having a predetermined viscosity are preferable chemicals. Viscosity of the glycerin is 1500 mPa.s at 20° C., and the thermal decomposition starts at 150° C. and finishes at 250° C. Viscosity of the diglycerin is 120 mPa.s at 20° C., and the thermal decomposition starts at 250° C. and finishes at 320° C. In response to an appropriate thickness of the coating film, glycerin or diglycerin can be diluted with methanol and mixed into the solution of carboxylic acid copper. FIG. 3 indicates relationships between temperature and weight of glycerin and diglycerin. Structure 1 indicates a molecular structure of glycerin, and structure 2 indicates a molecular structure of diglycerin. [drawing 1]

[3] = Solubility of each carboxylic acid in methanol; conditions: for solubility in methanol (Max): temperature not given
[4] = Solubilities of each carboxylic acid in water
[5] = Solubility of each carboxylic acid in 1-propanol; type: physicochemical; conditions: 20° C.
[6] = 20° C.
[7] = Solubility of each carboxylic acid in 1-butanol; type: physicochemical; conditions: 20° C.
[8] = Solubility of carboxylic acid copper in organic solvents; type: physicochemical

Structure (SMILES): O=C(O)c1cccc(C(=O)O)c1 [isophthalic acid]
solubility in methanol (Max) [3]: Max 1.7 g is dissolved in g is dissolved in methanol 100 g

Structure (SMILES): O=C(O)C(O)c1ccccc1 (stereo not drawn) [dl mandelic acid]
solubility in water ([4]; 30° C.): 37.5 g is dissolved in water 100 g

Structure (SMILES): O=C(O)c1ccccc1O [salicylic acid]
solubility in 1-propanol [5]: 22.3 g is dissolved in saturated g is dissolved in saturated solution 100 cc

Structure (SMILES): Cc1ccccc1C(=O)O [0-toluic acid]
solubility in methanol ([3]; 20° C.): 20 wt % dissolved at 20 °C

Structure (SMILES): CC(=O)CC(=O)O [acetoacetic acid]
solubility in methanol ([3]; 20° C.): 20 wt % dissolved at 20 °C
solubility in water ([4]; 20° C.): 20 wt % dissolved at 20 °C

Structure (SMILES): O=C(O)c1ccccc1C(=O)O [phthalic acid]
solubility in methanol (Max) [3]: Max 16.4 g is dissolved in g is dissolved in methanol 100 g
solubility in 1-propanol [5]: 4.3 g is dissolved in saturated g is dissolved in saturated solution 100 cc

Structure (SMILES): [Cl][Cu][Cl] [copper chloride, cupric chloride]
Solubility of copper chloride ([6]; solvent 1-butanol): 15.4 g dissolved in saturated solution 100 g at 20 °C
Solubility of copper chloride ([6]; solvent 1-propanol): 19.7 g dissolved in saturated solution 100 g at 20 °C
Solubility of copper chloride ([6]; solvent methanol): 37 g dissolved in saturated solution 100 g at 20 °C
Solubility of copper chloride ([6]; solvent water): 42.3 g dissolved in saturated solution 100 g at 20 °C

Structure (SMILES): O=C(O)CC(=O)O [malonic acid]
solubility in water ([4]; 30° C.): 63 g is dissolved in saturated g is dissolved in saturated solution 100 g

Structure (SMILES): O=C(O)c1ccc(C(=O)O)cc1 [terephthalic acid]
solubility in methanol (Max) [3]: Max 16.9 g is dissolved in g is dissolved in methanol 100 g
solubility in 1-propanol [5]: 4.4 g is dissolved in saturated g is dissolved in saturated solution 100 cc

Structure (SMILES): CCCCCCCCCCCC(=O)O.[Cu] [dodecanoic acid copper]
solubility in the methanol compared with butanoic acid copper [8]: lower

Structure (SMILES): COc1ccc(C(=O)O)cc1 [anisic acid]
solubility in methanol ([3]; 20° C.): 20 wt % dissolved at 20 °C

Structure (SMILES): CCCCCCCCCCCC(=O)O [dodecanoic acid]
solubility in 1-butanol [7]: 83 g is dissolved in solvent 100 g
solubility in methanol ([3]; 20° C.): 120 g is dissolved in g is dissolved in methanol 100 g

Structure (SMILES): C=CCC(C(=O)O)C(=O)O [allylic malonic acid]
solubility in methanol ([3]; 20° C.): 20 wt % dissolved at 20 °C
solubility in water ([4]; 20° C.): 20 wt % dissolved at 20 °C

Structure (SMILES): O=C(O)CCCC(=O)O [glutaric acid]
solubility in methanol ([3]; 20° C.): 20 wt % dissolved at 20 °C
solubility in water ([4]; 30° C.): 63 g is dissolved in saturated g is dissolved in saturated solution 100 g

Now from value to compound, other results behind:

Viscosity [1]: 120 mPa.s
thermal decomposition finishes at (perfectly decomposed into CO2 and H2O) [2]: 320 °C
Structure (SMILES): OCC(O)COCC(O)CO (stereo not drawn) [diglycerin]

Viscosity [1]: 1500 mPa.s
Viscosity ([1]; undiluted): 1500 centipoises
thermal decomposition finishes at (perfectly decomposed into CO2 and H2O) [2]: 250 °C
Structure (SMILES): OCC(O)CO [glycerin]

solubility in water ([4]; 20° C.): 20 wt % dissolved at 20 °C
Structure (SMILES): O=C(O)c1ccc(C(=O)O)c(C(=O)O)c1C(=O)O [mellophanic acid]

solubility in 1-butanol [7]: 28.7 g is dissolved in solvent 100 g
Structure (SMILES): CCCCCCCCCCCCCC(=O)O [myristic acid]

solubility in methanol ([3]; 20° C.): 20 wt % dissolved at 20 °C
Structure (SMILES): O=C(O)CCCCCCCC(=O)O [azelaic acid]

solubility in water [4]: Dissolved at arbitrary ratio
Structure (SMILES): C=C(C)C(=O)O [methacrylic acid]

solubility in water ([4]; 30° C.): 88 g is dissolved in water 100 g at
Structure (SMILES): O=C(O)/C=C\C(=O)O [maleic acid]
solubility in methanol ([3]; 30° C.): 70 g is dissolved in g is dissolved in methanol 100 g

solubility in methanol ([3]; 20° C.): 20 wt % dissolved at 20 °C
Structure (SMILES): O=C(O)CCCCCC(=O)O [pimelic acid]

solubility in methanol ([3]; 20° C.): 20 wt % dissolved at 20 °C
Structure (SMILES): O=C(O)c1cc(C(=O)O)cc(C(=O)O)c1 [trimesic acid]

solubility in methanol ([3]; 20° C.): 20 wt % dissolved at 20 °C
solubility in water ([4]; 20° C.): 20 wt % dissolved at 20 °C
Structure (SMILES): CC(=O)CCC(=O)O [levulinic acid]

solubility in methanol ([3]; 20° C.): 20 wt % dissolved at 20 °C
Structure (SMILES): O=C(O)CCCCCCC(=O)O [suberic acid]
